Results published in patent US10898708B2, “System and method for applying pulsed electromagnetic fields” (National University of Singapore, priority 2015, dated 2021).
“Also recorded” adds a separate entry of the source.

Tests used:
C2C12 myoblasts [1] = experiment: Intracellular calcium in C2C12 myoblasts (Calcium Green-1; flow cytometry or plate reading); format: cell-based, mouse
Experimental: In preparation for measurement of changes in intracellular calcium in response to PEMF treatment with flow cytometry myoblasts (50,000 cells) were spun down (1000 RCF; 5 minutes), resuspended in 2 ml of PBS and next loaded with 20 μl Calcium Green-1, AM (50 μg in 100 μl DMSO; Molecular Probes) for 30 minutes at 37 C in the dark. Following incubation, cells were washed once, resuspended into 500 μl PBS and placed on ice before registry in a BD FACSAria Flow Cytometer (FL1 channel). For plate reading assessment of intracellular calcium, myoblasts were plated into 96 black well plates (Brand 96 Flat Bottom Black) at 10,000 cells/wells. Cultures were washed once with PBS and supplied with 250 μl growth media to which Calcium Green-1 AM (50 μg in 100 μl DMSO; Molecular Probes) had been added at a dilution of 1:1000. Myoblasts cultures were then incubated in a standard tissue culture incubator for 5 minutes, followed by PEMF exposure for 10 minutes and then replaced in the incubator for an additional 15 minutes at 37° C. before washing with 37° C. PBS. Calcium measurement was conducted using a Tecan Infinite 200Pro plate reader with excitation wavelength and emission wavelengths set to 500 nm and 535 nm, respectively, and bandwidth excitation and emission wavelengths set to 9 and 20 nm, respectively.
(§1) Each pulse train consists of 20×150 μsec asymmetric pulses separated by 150 μsec interpulse intervals to the 0 flux level. The magnetic flux density rose to maximal level within 20-50 μsec and dropped equally as rapidly (50 T/s).

C2C12 myoblasts [2] = experiment: PEMF-induced proliferation of C2C12 myoblasts; settings: 100 μM; 1 mT PEMFs within 18 hours after plating
C2C12 myoblasts [3] = experiment: Cell cycle (G2/M accumulation) of myoblasts in simulated microgravity; format: cell-based, mouse; settings: 5 mM added transiently 10 minutes before simulated microgravity; at 2 hours
Experimental: The RPM was kept in a temperature-controlled room at 37° C. The calculated gravity exerted upon cells on the RPM was below 0.02 g. Cells were seeded 15 hours prior to the start of the RPM experiment at 8000/cm^2. At 15 hours some samples were incubated with 5 mM CaCl2 for 10 min, washed twice with PBS, given aged matched GM and placed onto the RPM. Other samples were exposed to PEMF at 37° C. (0.5 or 1.5 mT) for 10 min before being placed onto the RPM. Samples were fixed after 2 hours for subsequent cell cycle analysis as described below.
Following RPM treatment (above) cells were fixed and stored at −20° C. in 70% ice-cold ethanol for 12 to 18 hours prior to staining. Cell cycle was analyzed based on DNA content using a propidium iodide (PI)/RNase staining kit (BD Biosciences, cat#550825) by FACS.

TRPC1 channel = molecular target: T1, TRPC1 channel (Homo sapiens, UniProt P48995); experiment: Oxygen consumption rate (OCR) of myoblasts in response to PEMF; format: cell-based; settings: oxygen consumption measured 6 hours after PEMF
T1 construct: PEMF-induced TRPC1-mediated calcium entry in myoblasts increases oxygen consumption rate (OCR); endogenous in cells
T1 sequence (P48995 whole entry): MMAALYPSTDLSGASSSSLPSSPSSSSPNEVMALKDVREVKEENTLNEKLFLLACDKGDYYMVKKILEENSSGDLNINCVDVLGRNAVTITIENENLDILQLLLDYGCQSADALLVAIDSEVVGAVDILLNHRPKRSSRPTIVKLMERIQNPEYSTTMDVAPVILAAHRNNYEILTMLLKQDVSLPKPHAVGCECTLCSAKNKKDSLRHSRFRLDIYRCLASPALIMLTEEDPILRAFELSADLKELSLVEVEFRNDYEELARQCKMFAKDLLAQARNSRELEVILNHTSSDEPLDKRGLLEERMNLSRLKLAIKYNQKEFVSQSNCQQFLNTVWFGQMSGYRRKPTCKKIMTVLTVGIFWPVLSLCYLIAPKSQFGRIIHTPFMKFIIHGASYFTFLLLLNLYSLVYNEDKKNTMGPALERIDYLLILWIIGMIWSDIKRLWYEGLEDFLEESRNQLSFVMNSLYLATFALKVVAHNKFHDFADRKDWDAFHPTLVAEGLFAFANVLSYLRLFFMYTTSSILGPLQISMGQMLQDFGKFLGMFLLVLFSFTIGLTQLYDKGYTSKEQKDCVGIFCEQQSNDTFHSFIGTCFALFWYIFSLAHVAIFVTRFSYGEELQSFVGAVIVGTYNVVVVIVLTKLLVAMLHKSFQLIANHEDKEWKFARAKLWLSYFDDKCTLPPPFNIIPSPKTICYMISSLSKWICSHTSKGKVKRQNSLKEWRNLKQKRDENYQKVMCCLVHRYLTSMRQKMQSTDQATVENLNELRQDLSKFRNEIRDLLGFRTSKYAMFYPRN
Experimental: Muscle gene expression enhanced by PEMF treatment as indicated. […] The principal functions of these genes are shown in the parentheses. […] A) Human myoblast measurement showing increased OCR six hours following exposure to 1.5 mT PEMFs for 10 minutes. B) The production of reactive oxygen species (ROS) also increases 15 minutes after PEMF (1.5 mT) exposure.
C) Oxygen consumption rate (OCR) in response to PEMF stimulation obeys the same EMF efficacy window as proliferation. […] Cells were exposed to PEMFs and oxygen consumption measured 6 hours later. These cellular responses obey a mitohormeitic EMF efficacy window particular for skeletal muscle.

C2C12 myoblasts [4] = experiment: Myogenic differentiation (myotube area) of C2C12 myoblasts after PEMF; format: cell-based, mouse; settings: 100 μM co-administered; 1 mT PEMFs, early application
Experimental: Series of 4 images with 20× magnification were taken for each sample and myotube area was calculated by manually delimiting the myotube periphery using ImageJ (Cell Counter plugin).
as §1

[5] = extracellular magnesium raised to 10 mM, plate reading

## NCCOB(c1ccccc1)c1ccccc1 [2-APB, 2-Aminoethyl diphenylborinate]
C2C12 myoblasts [1]; 10 μM, unstimulated (0 mT) and stimulated (1 mT) myoblasts
  [Ca^2+]i / cytosolic calcium level: reduced the cytosolic calcium levels to a common baseline; also recorded: reduced [Ca^2+]i to a common baseline
C2C12 myoblasts [1]; antagonizing TRPM7/C1 channels, 1 mT PEMFs
  PEMF-provoked calcium increments: precluded the ability of PEMFs to provoke calcium increments
C2C12 myoblasts [2]
  PEMF-induced proliferation: abolished the ability of PEMFs to enhance proliferation

## [Ca+2].[Cl-].[Cl-] [CaCl2]
C2C12 myoblasts [3]
  Reversal of G2/M accumulation from simulated microgravity: mimic the effects of 1.5 mT PEMFs

## COc1ccc(CCCOC(Cn2ccnc2)c2ccc(OC)cc2)cc1 (centres unmarked) [SKF-96365]
TRPC1 channel
  OCR in response to PEMF exposure: blocks OCR in response to PEMF exposure

## COc1cc(CNC(=O)CCCC/C=C/C(C)C)ccc1O [capsaicin]
C2C12 myoblasts [1]; 1 mT PEMFs
  capsaicin calcium response versus response to PEMFs: inversely related to response to 1 mT PEMFs

## C[C@H](CCC(=O)O)C[C@H](C)C[C@H](C)C(=O)/C=C(\O)[C@H](C)C[C@H](C)C/C=C/[C@@H](C)[C@@H](O)[C@@H](C)[C@@H](O)C[C@@H]1CC[C@@](C)([C@H]2CC[C@@](C)([C@@H](C)O)O2)O1 [ionomycin]
C2C12 myoblasts [1]; 1 μM, 30 min, compared with 1 mT PEMFs for 10 min, listed as lonomycin
  [Ca^2+]i increase relative to unexposed cells: comparable magnitude
C2C12 myoblasts [1]; 1 μM, five-hour application
  [Ca^2+]i: produced lethal [Ca^2+]i

## [Mg+2] [magnesium]
C2C12 myoblasts [1]; [5]
  PEMF-induced rise of intracellular calcium: did not prevent PEMFs from raising intracellular calcium; also recorded: does not prevent PEMFs from raising intracellular calcium
  basal and PEMF-induced calcium levels: augmented both basal and PEMF-induced calcium levels

## neomycin
C2C12 myoblasts [4]
  PEMF enhancement of myotube size (mean myotube area): prevented
